For the test, the target named is yHsp90 (yeast Hsp90, Hsp82) (Saccharomyces cerevisiae, UniProt P02829). The experiment in a line: Kd determination. Type of test: binding.
yHsp90 (yeast Hsp90, Hsp82), sequence (P02829 whole entry): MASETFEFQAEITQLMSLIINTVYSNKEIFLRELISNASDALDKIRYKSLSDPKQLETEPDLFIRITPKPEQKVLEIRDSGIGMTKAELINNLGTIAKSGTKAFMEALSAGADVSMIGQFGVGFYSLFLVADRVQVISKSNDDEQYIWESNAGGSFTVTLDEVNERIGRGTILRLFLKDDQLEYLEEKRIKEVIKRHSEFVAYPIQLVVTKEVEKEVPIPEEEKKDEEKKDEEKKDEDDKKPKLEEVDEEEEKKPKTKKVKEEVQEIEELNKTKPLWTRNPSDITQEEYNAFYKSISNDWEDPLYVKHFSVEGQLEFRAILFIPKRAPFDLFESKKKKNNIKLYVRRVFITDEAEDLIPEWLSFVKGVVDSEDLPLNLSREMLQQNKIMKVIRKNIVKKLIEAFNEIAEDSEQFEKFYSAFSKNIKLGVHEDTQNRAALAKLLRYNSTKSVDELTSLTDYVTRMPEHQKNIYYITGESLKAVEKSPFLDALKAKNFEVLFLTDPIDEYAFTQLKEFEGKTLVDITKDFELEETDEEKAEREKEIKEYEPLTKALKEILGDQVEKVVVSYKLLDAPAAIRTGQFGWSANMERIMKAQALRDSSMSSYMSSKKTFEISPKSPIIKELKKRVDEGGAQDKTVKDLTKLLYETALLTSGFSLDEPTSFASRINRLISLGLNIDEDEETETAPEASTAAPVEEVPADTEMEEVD

For the molecule `Nc1ncnc2c1ncn2[C@@H]1O[C@H](CO[P@](=O)(O)O[P@](=O)(O)NP(=O)(O)O)[C@@H](O)[C@H]1O` [AMPPNP], the Kd entry is given as “Kd of each protein for AMPPNP is shown in inset”.

For the origin of these results see PMC2824606 (Molecular cell, 2010).
